Laboratory results published in paper PMC6476959, “Novel 3,4-Dihydroisocoumarins Inhibit Human P-gp and BCRP in Multidrug Resistant Tumors and Demonstrate Substrate Inhibition of Yeast Pdr5” (Frontiers in Pharmacology, 2019).
“Also recorded” adds a separate entry of the source.

Columns and labels:
[1] = target: T1, BCRP (Homo sapiens, UniProt Q9UNQ0); test: BCRP transport assay (Hoechst 33342) in MCF-7/MX cells; type: cell-based
T1 construct: endogenous in cells; host or cells: MCF-7/MX human breast adenocarcinoma cells (mitoxantrone-selected)
T1 sequence (Q9UNQ0 1-655): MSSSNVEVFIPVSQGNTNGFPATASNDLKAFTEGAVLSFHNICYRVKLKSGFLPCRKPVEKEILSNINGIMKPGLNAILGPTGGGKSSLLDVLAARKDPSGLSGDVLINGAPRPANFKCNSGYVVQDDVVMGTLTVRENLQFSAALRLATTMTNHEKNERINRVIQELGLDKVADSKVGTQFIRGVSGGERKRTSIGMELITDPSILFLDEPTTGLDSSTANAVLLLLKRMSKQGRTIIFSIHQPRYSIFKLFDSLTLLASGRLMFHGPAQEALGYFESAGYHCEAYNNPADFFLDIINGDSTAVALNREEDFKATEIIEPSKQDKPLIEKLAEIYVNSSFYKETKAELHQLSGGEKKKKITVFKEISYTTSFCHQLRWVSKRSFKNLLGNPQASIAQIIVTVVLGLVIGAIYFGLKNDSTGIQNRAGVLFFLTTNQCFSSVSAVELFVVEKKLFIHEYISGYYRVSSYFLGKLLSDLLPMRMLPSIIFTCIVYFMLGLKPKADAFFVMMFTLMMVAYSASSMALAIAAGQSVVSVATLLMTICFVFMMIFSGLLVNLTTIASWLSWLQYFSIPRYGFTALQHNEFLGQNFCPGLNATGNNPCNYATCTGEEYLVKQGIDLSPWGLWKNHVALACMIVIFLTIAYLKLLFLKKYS
Method: Breast cancer resistance protein transport activity was determined in the BCRP-expressing MCF-7/MX cell line. Hoechst 33342 was applied as transporter substrate and 1 μM Ko143 as positive control or 0.5% DMSO as negative control and the assay was performed according to the P-gp assay. Fluorescence was measured at an excitation wavelength of 355 nm and emission wavelength of 460 nm. The transport activity of BCRP was analyzed by determining the plateau of the fluorescence-time curve by using non-linear regression (one-phase exponential fit). Normalization of the data to Ko143 (100% inhibition) and DMSO (0% inhibition) was performed.

[2] = target: T2, Pdr5 (Saccharomyces cerevisiae, UniProt P33302); test: Pdr5 ATPase assay (oligomycin-sensitive) in plasma membrane preparations; type: biochemical; conditions: highest concentrations (10 mM), in comparison to Pdr5 WT in the absence of any compound
T2 construct: effect on (A) the transport activity of Pdr5 WT and (B) their effect on the ATPase activity; made in house; host or cells: S. cerevisiae YRE1001 (pdr1-3 background), isolated plasma membranes
Method: Saccharomyces cerevisiae cells expressing Pdr5 WT or the E1036Q (EQ) mutant were cultured to an OD600 of 1.5 in YPD-media at 25°C. The nitrogen source was replenished by addition of a 10th volume of 5x YP (50 g/l yeast extract, 100 g/l peptone). The cells were grown to an OD of 3.5 and harvested (5000 ×g at 4°C for 15 min). The isolation of Pdr5 containing PMs was performed as described ([Kolaczkowski et al., 1996]; [Ernst et al., 2008]).
Oligomycin (OM)-sensitive ATPase activity was measured from 0.8 μg PM containing Pdr5 incubated with 2 mM ATP, 5 mM MgCl2 in 270 mM TRIS-glycine buffer (pH 9.5) and 2.5 μl of the test compounds or DMSO as a control in a total volume of 100 μl. To reduce the background activities, 0.2 mM ammonium molybdate, 10 mM NaN3 and 50 mM KNO3, respectively, were added ([Dufour et al., 1988]; [Goffeau and Dufour, 1988]). In a second assay, OM (20 μg/ml) was added to an otherwise identical setup. After incubation at 30°C for 20 min, the reaction was stopped by adding 25 μl of the reaction to 175 μl 40 mM H2SO4. The amount of released inorganic phosphate was determined by a colometric assay in 96-well plates ([Goffeau and Dufour, 1988]; [Decottignies et al., 1994]; [Wada et al., 2002]). The difference of both assays ( ± OM) corresponds to the specific ATPase activity of Pdr5 ([Ernst et al., 2008]).

[3] = tested on: P-gp expressing HCT-15 cells; test: Sensitization of HCT-15 cells to doxorubicin (co-treatment, cell viability); type: cell-based, human; conditions: for Fold change of doxorubicin IC50: IC50 (drug alone)/IC50 (drug with modulator)
Method: (§1) Cytotoxic activity of test compounds was analyzed after 48 h using the CellTiter-Glo Luminescent Cell Viability Assay published previously ([Weber et al., 2017]) in 384-well plates with the following cell densities: A549, MCF-7/MX: 2 × 10^3 cells/well; HCT-15: 3 × 10^3 cells/well; H69AR: 5 × 10^3 cells/well. Pipetting was conducted with the CyBi-Well 96-channel simultaneous pipettor (Analytik Jena AG, Jena, Germany). For generation of dose-response curves and calculation of IC50 values, the four-parameter logistic model was applied.
(§2) The ability of identified inhibitors of P-gp and BCRP to sensitize HCT-15 or MCF-7/MX cells to chemotherapy was analyzed by co-treatment with test compounds and doxorubicin or mitoxantrone, respectively. Cells were incubated with a serial dilution of the chemotherapeutic drug alone or in combination with fixed concentrations of the test compounds or positive controls (2.5 μM PSC833 and 1 μM Ko143, respectively). Fold change of drug IC50 was calculated with the formula IC50 (drug alone)/IC50 (drug with modulator).

[4] = tested on: BCRP-expressing MCF-7/MX cells; test: Sensitization of MCF-7/MX cells to mitoxantrone (co-treatment, cell viability); type: cell-based, human; conditions: for Fold change of mitoxantrone IC50: IC50 (drug alone)/IC50 (drug with modulator)
Method: as §1, §2

T2 sequence (P33302 whole entry): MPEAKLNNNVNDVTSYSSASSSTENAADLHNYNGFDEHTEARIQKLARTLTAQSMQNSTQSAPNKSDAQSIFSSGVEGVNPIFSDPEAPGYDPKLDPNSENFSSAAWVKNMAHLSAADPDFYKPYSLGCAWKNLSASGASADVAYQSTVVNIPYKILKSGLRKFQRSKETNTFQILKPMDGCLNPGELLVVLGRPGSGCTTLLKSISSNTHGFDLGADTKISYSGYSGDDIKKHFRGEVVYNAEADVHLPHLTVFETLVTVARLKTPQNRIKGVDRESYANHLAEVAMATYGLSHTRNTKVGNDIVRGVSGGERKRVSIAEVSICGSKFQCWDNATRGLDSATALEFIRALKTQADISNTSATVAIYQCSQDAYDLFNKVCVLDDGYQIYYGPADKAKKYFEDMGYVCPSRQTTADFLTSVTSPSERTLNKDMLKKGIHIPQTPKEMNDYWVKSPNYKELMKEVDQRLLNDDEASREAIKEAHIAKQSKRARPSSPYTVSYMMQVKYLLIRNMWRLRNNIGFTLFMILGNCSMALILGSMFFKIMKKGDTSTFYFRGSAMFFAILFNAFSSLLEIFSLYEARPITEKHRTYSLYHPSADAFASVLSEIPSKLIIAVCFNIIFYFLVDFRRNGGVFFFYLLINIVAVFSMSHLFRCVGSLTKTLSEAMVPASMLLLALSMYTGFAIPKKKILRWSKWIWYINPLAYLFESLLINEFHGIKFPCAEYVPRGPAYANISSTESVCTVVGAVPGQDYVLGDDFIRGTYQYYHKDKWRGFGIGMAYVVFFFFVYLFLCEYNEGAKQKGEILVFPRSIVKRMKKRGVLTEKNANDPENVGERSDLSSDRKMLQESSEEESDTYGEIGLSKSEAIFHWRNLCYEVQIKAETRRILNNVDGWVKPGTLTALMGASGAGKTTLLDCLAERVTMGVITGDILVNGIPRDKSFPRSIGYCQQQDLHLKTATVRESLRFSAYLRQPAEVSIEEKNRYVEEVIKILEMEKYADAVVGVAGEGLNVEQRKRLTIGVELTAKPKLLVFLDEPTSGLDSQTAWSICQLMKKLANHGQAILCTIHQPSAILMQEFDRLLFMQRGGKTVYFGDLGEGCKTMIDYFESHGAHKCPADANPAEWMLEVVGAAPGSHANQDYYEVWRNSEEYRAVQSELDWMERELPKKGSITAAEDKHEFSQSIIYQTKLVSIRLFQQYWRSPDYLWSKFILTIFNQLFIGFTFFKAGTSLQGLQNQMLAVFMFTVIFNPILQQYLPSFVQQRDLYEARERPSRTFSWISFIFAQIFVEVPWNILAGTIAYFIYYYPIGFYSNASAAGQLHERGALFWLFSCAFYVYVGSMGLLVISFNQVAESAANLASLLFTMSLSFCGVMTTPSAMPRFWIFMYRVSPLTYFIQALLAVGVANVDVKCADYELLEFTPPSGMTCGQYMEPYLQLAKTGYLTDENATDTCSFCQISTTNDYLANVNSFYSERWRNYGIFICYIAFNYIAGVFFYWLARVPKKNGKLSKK

| Structure (SMILES) | Inhibition of BCRP (in words) [1] | ATPase activity of Pdr5 WT inhibited to (initial screen) ([2]; listed as 4) | ATPase activity of Pdr5 WT inhibited to (initial screen) ([2]; listed as angelicoin (4)) | ATPase activity of Pdr5 WT inhibited to (initial screen) ([2]; listed as angelicoin B (4)) | Sensitization of HCT-15 cells to doxorubicin (in words) [3] | Fold change of doxorubicin IC50 ([3]; +20 μM of the modulator) | Fold change of doxorubicin IC50 ([3]; +50 μM of the modulator) | Sensitization of MCF-7/MX cells to mitoxantrone (in words) [4] | Fold change of mitoxantrone IC50 ([4]; +10 μM of the modulator) | Fold change of mitoxantrone IC50 ([4]; +20 μM of the modulator) | Fold change of mitoxantrone IC50 ([4]; +50 μM of the modulator) | ATPase activity of Pdr5 WT inhibited to (initial screen) [2] | inhibition at 3 h, 10 μM ([1]; human, BCRP-expressing MCF-7/MX cells, probe Hoechst 33342, 10 μM, normalized to 1 μM Ko143 (100%) and DMSO (0%), read-out: Relative inhibition of BCRP) [%] | inhibition at 3 h, 50 μM ([1]; human, BCRP-expressing MCF-7/MX cells, probe Hoechst 33342, 50 μM, normalized to 1 μM Ko143 (100%) and DMSO (0%), read-out: Relative inhibition of BCRP) [%] | inhibition at 3 h ([1]; human, BCRP-expressing MCF-7/MX cells, probe Hoechst 33342, different concentrations, normalized to Ko143, read-out: Relative inhibition of BCRP, span over the tested concentrations) [%] |
| --- | --- | --- | --- | --- | --- | --- | --- | --- | --- | --- | --- | --- | --- | --- | --- |
| COc1cc(O)c2c(c1)C[C@H](C)OC2=O [Angelicoin B (4), angelicoin B] | no inhibitory activity could be observed | nearly no effect | no effect | no inhibitory effect | – | – | – | – | – | – | – | – | – | – | – |
| COc1cc(O)c2c(c1)CCOC2=O [Compound 14] | did not inhibit BCRP | – | – | – | did not sensitize the cells to doxorubicin | 0.89 | 0.80 | did not have a significant influence | 1.01 | 0.77 | 0.78 | nearly no effect; also recorded: no inhibitory effect | – | – | – |
| CCCCCC1Cc2cc(OC)cc(O)c2C(=O)O1 (stereo not drawn) [Compound 16] | – | – | – | – | – | 0.98 | 3.7 | – | 0.93 | 3.70 | 5.6 | – | 35.3 ± 3.4 | 89.1 ± 4.6 | – |
| CCCCCC1Cc2cc(OC)cc(OC)c2C(=O)O1 (stereo not drawn) [Compound 16a] | – | – | – | – | – | – | – | – | – | – | – | – | – | – | 2.3 to 14.9 |
